The text below walks through data of patent publication US10647680B2, “Urea compound, preparation method therefor and medical use thereof” (Ancureall Pharmaceutical (Shanghai) Co., Ltd., priority 2016, dated 2020).

One test has as its system RS4; 11 (FLT3 wild type). Put plainly: In vitro growth inhibition (GI50), RS4; 11. The note with it: Homo sapiens, RS4-11; Cell lines of leukemia; read-out: GI 50 RS4: 11 FLT3 (WT). It is filed as cell-based, human.
For another test, the system named is HL-60 (FLT3 wild type). Put plainly: In vitro growth inhibition (GI50), HL-60. It is filed as cell-based. The conditions noted are these: Homo sapiens, Cell lines of leukemia, read-out: GI 50 HL60 FLT3 (WT). The method in brief:
(§1)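 Cells in RPMI1640 with 10% FBS, seeded at 5–10×10^4 cells/mL, exposed next day to compound at 5,000 nM down to 0.01 nM (2- or 10-fold dilutions, ≤1% solvent) for 3–5 days at 37 °C. CCK8 absorbance at 450 nm, growth rate relative to pre-treatment and solvent controls, GI50 from concentration–growth curve.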

Test [1] relates to K562 (FLT3 negative expression, positive expression of BCR-ABL fusion protein). As to the kind of experiment: In vitro growth inhibition (GI50), K562. It is filed as cell-based. The note with it: Homo sapiens, Cell lines of leukemia, read-out: GI 50 K562 BCR-ABL.
In test [2] the test system is OCI-AML3 (NPMc+ mutant type). As to the kind of experiment: In vitro growth inhibition (GI50), OCI-AML3. It is filed as cell-based. The conditions noted are these: Homo sapiens, OCI-AML-3; Cell lines of leukemia; read-out: GI 50 OCI- AML3 NPMc+.
The test system of test [3] is RAMOS (positive expression of Brutons tyrosine protein kinase). Put plainly: In vitro growth inhibition (GI50), RAMOS. The conditions noted are these: Homo sapiens, Cell lines of leukemia, read-out: GI 50 Ramos BTK. In kind it is cell-based.
Test [4] has as its system MOLM-13 (FLT3 ITD+/− mutant type). Put plainly: In vitro growth inhibition (GI50), MOLM-13. It is filed as cell-based, human. The note with it: Homo sapiens, MOLM-13; Cell lines of leukemia; read-out: GI 50 MOLM-13 FLT3 (ITD+/−).
The test system of test [5] is Kasumi-1 (c-Kit N822K mutant type). Put plainly: In vitro growth inhibition (GI50), Kasumi-1. The note with it: Homo sapiens, Cell lines of leukemia, read-out: GI 50 Kasumi-1 Kit (N822K). It is filed as cell-based. A digest of the protocol: as §1
In test [6] the test system is KG-1 (expressing FGFR1OP2-FGFR1 fusion protein). As to the kind of experiment: In vitro growth inhibition (GI50), KG-1. In kind it is cell-based. The note with it: Homo sapiens; Cell lines of leukemia; read-out: GI 50 KG-1 FGFR1OP 2-FGFR1.
The subject of test [7] is MV4-11 (FLT3 ITD+/+ mutant type). Put plainly: In vitro growth inhibition (GI50), MV4-11. It is filed as cell-based, human. The note with it: Homo sapiens, MV4-11; Cell lines of leukemia; read-out: GI 50 MV4-11 FLT3 (ITD +/+).
The next test relates to U937 (FLT3 wild-type). Put plainly: In vitro growth inhibition (GI50), U937. The conditions noted are these: Homo sapiens, U-937; Cell lines of leukemia; read-out: GI 50 U937 FLT 3(WT). In kind it is cell-based.

Take `CCOC(=O)COc1ccc2c(c1)ncn2-c1ccc(NC(=O)Nc2cc(C(C)(C)C)n[nH]2)cc1` [Compound 88, ethyl (1-{4-[3-(5-tert-butyl-2H-pyrazol-3-yl)-carbamido]-phenyl}-H-benzimidazol-5-yloxy)-acetate]: the GI50 with RS4; 11 (FLT3 wild type) was over 1000 nM; in the test on HL-60 (FLT3 wild type) it was over 1000 nM; in test [1], over 1000 nM; in [2] it was over 1000 nM; in [3], over 1000 nM; in test [4], 1 to 10 nM. In addition, the GI50 was over 1000 nM in test [5], over 1000 nM in test [6], 1 to 10 nM in test [7] and over 1000 nM in the test on U937 (FLT3 wild-type).
On to `CC(C)(C)c1cc(NC(=O)Nc2ccc(-n3cnc4cc(OCCN5CCCCC5)ccc43)cc2)[nH]n1` [Compound 90, 1-(5-tert-butyl-2H-pyrazol-3-yl)-3-{4-[5-(2-piperidin-1-yl-ethoxyl)-benzimidazol-1-yl]-phenyl}-urea], for which the GI50 in the test with RS4; 11 (FLT3 wild type) was over 1000 nM; in the test on HL-60 (FLT3 wild type), over 1000 nM; in [1] it was over 1000 nM; in [2], over 1000 nM; in test [3] it was over 1000 nM; in [4], 0.1 to 1 nM. Further, the GI50 is over 1000 nM in test [5], over 1000 nM in test [6], 0.1 to 1 nM in [7] and over 1000 nM in the test on U937 (FLT3 wild-type).
Take `CC(C)(C)c1cc(NC(=O)Nc2ccc(-n3cnc4cc(OCCN5CCCCCC5)ccc43)cc2)[nH]n1` [Compound 91, 1-{4-[5-(2-azepan-1-yl-ethoxy)-benzimidazol-1-yl]-phenyl}-3-(5-tert-butyl-2H-pyrazol-3-yl)-urea]: the GI50 is over 1000 nM with RS4; 11 (FLT3 wild type); over 1000 nM in the test with HL-60 (FLT3 wild type); over 1000 nM in test [1]; over 1000 nM in test [2]; over 1000 nM in test [3]; 0.1 to 1 nM in [4]. For the same compound, the GI50 in test [5] is over 1000 nM; in [6] it was over 1000 nM; in test [7] it was 0.1 to 1 nM; in the test with U937 (FLT3 wild-type) it was over 1000 nM.
In the case of `CN1CCN(CCCOc2ccc3c(c2)ncn3-c2ccc(NC(=O)Nc3cc(C(C)(C)C)n[nH]3)cc2)CC1` [Compound 92, 1-(5-tert-butyl-2H-pyrazol-3-yl)-3-(4-{5-[3-(4-methyl-piperazin-1-yl)-propoxyl]-benzimidazol-1-yl}-phenyl)-urea], the GI50 with RS4; 11 (FLT3 wild type) was 10 to 100 nM; in the test on HL-60 (FLT3 wild type), over 1000 nM; in [1] it was over 1000 nM; in test [2], over 1000 nM; in [3], 100 to 1000 nM; in [4] it was 0.1 to 1 nM. Besides, the GI50 in test [5] is over 1000 nM; in test [6], over 1000 nM; in [7], 0.1 to 1 nM; in the test on U937 (FLT3 wild-type), 100 to 1000 nM.
In the case of `CC(C)(C)c1cc(NC(=O)Nc2ccc(-n3cnc4cc(OCc5cccc(F)c5)ccc43)cc2)[nH]n1` [Compound 93, 1-(5-tert-butyl-2H-pyrazol-3-yl)-3-{4-[5-(3-fluoro-benzyloxy)-benzimidazol-1-yl]-phenyl]-urea], the GI50 in the test with RS4; 11 (FLT3 wild type) is over 1000 nM; in the test on HL-60 (FLT3 wild type), over 1000 nM; in test [1], over 1000 nM; in [2], over 1000 nM; in [3], over 1000 nM; in [4] it was 1 to 10 nM. The GI50 in test [5] is over 1000 nM; in test [6], over 1000 nM; in [7] it was 1 to 10 nM; in the test on U937 (FLT3 wild-type) it was over 1000 nM.
For `CC(C)(C)c1cc(NC(=O)Nc2ccc(-n3cnc4cc(OCCCCc5nnnn5C5CCCCC5)ccc43)cc2)[nH]n1` [Compound 94, 1-(5-tert-butyl-2H-pyrazol-3-yl)-3-(4-{5-[4-(1-cyclohexyl-1H-tetrazol-5-yl)-butoxy]-benzimidazol-1-yl}-phenyl)-urea], the GI50 in the test with RS4; 11 (FLT3 wild type) is over 1000 nM; in the test with HL-60 (FLT3 wild type), over 1000 nM; in test [1], over 1000 nM; in test [2], over 1000 nM; in test [3], over 1000 nM; in test [4], 1 to 10 nM. The GI50 in test [5] is over 1000 nM; in test [6], over 1000 nM; in test [7], 1 to 10 nM; in the test on U937 (FLT3 wild-type), over 1000 nM.
Turning to `CC(C)(C)c1cc(NC(=O)Nc2ccc(-n3cnc4cc(Oc5nsnc5N5CCOCC5)ccc43)cc2)[nH]n1` [Compound 95, 1-(5-tert-butyl-2H-pyrazol-3-yl)-3-{4-[5-(4-morpholin-4-yl-[1,2,5]thiadiazol-3-yloxy)-benzimidazol-1-yl]-phenyl}-urea], the GI50 was over 1000 nM with RS4; 11 (FLT3 wild type); over 1000 nM in the test with HL-60 (FLT3 wild type); over 1000 nM in [1]; over 1000 nM in test [2]; over 1000 nM in [3]; 1 to 10 nM in [4]. Moreover, the GI50 was over 1000 nM in test [5], over 1000 nM in test [6], 1 to 10 nM in test [7] and over 1000 nM in the test on U937 (FLT3 wild-type).
`CNC(=O)c1cc(Oc2ccc3c(c2)ncn3-c2ccc(NC(=O)Nc3cc(C(C)(C)C)n[nH]3)cc2)ccn1` [Compound 96, 4-(1-{4-[3-(5-tert-butyl-2H-pyrazol-3-yl)-carbamido]-phenyl}-1H-benzimidazol-5-yloxy)-pyridin-2-carboxymethylamine]: the GI50 with RS4; 11 (FLT3 wild type) was over 1000 nM; in the test on HL-60 (FLT3 wild type) it was over 1000 nM; in test [1], over 1000 nM; in test [2], over 1000 nM; in test [3], over 1000 nM; in test [4], 1 to 10 nM. Also, the GI50 in test [5] was over 1000 nM; in [6], over 1000 nM; in [7], 1 to 10 nM; with U937 (FLT3 wild-type), over 1000 nM.
Take `Cc1cc(F)cc2ncn(-c3ccc(NC(=O)Nc4cc(C(C)(C)C)n[nH]4)cc3)c12` [Compound 97, 1-(5-tert-butyl-2H-pyrazol-3-yl)-3-[4-(5-fluoro-7-methyl-benzimidazol-1-yl)-phenyl]-urea]: the GI50 was over 1000 nM in the test on RS4; 11 (FLT3 wild type); over 1000 nM in the test on HL-60 (FLT3 wild type); over 1000 nM in [1]; over 1000 nM in test [2]; over 1000 nM in [3]; 1 to 10 nM in test [4]. Further, the GI50 in [5] is over 1000 nM; in test [6], over 1000 nM; in [7], 1 to 10 nM; with U937 (FLT3 wild-type), over 1000 nM.
Take `COc1cc2ncn(-c3ccc(NC(=O)Nc4cc(C(C)(C)C)n[nH]4)cc3)c2cc1OC` [Compound 99, 1-(5-tert-butyl-2H-pyrazol-3-yl)-3-[4-(5,6-dimethoxyl-benzimidazol-1-yl)-phenyl]-urea]: the GI50 in the test on RS4; 11 (FLT3 wild type) was over 1000 nM; in the test with HL-60 (FLT3 wild type), over 1000 nM; in test [1], over 1000 nM; in test [2], over 1000 nM; in test [3], over 1000 nM; in test [4] it was 0.1 to 1 nM. The GI50 is over 1000 nM in test [5], over 1000 nM in test [6], 0.1 to 1 nM in [7] and over 1000 nM in the test with U937 (FLT3 wild-type).
As for `Cn1nc(C(C)(C)C)cc1NC(=O)Nc1ccc(-n2cnc3ccccc32)cc1` [Compound 100, 1-(4-benzimidazol-1-yl-phenyl)-3-(5-tert-butyl-2-methyl-2H-pyrazol-3-yl)-urea], the GI50 in the test with RS4; 11 (FLT3 wild type) was over 1000 nM; with HL-60 (FLT3 wild type), over 1000 nM; in [1] it was over 1000 nM; in test [2], over 1000 nM; in test [3], over 1000 nM; in [4], 0.1 to 1 nM. Besides, the GI50 was over 1000 nM in test [5], over 1000 nM in [6], 0.1 to 1 nM in test [7] and over 1000 nM in the test on U937 (FLT3 wild-type).
With `CC(C)(C)c1cc(NC(=O)Nc2ccc(-n3cnc4ccccc43)cc2)n(CCO)n1` [Compound 103, 1-(4-benzimidazol-1-yl-phenyl)-3-[5-tert-butyl-2-(2-hydroxy-ethyl)-2H-pyrazol-3-yl]-urea], the GI50 with RS4; 11 (FLT3 wild type) was over 1000 nM; in the test with HL-60 (FLT3 wild type), over 1000 nM; in test [1], over 1000 nM; in test [2], over 1000 nM; in test [3] it was over 1000 nM; in test [4], 1 to 10 nM. The GI50 in test [5] is over 1000 nM; in test [6] it was over 1000 nM; in [7] it was 1 to 10 nM; with U937 (FLT3 wild-type), over 1000 nM.
For the compound `CC(C)(C)c1cc(NC(=O)Nc2ccc(-n3cnc4ccccc43)cc2)n(-c2ccccc2)n1` [Compound 104, 1-(4-benzimidazol-1-yl-phenyl)-3-(5-tert-butyl-2-phenyl-2H-pyrazol-3-yl)-urea], the GI50 is over 1000 nM in the test with RS4; 11 (FLT3 wild type); over 1000 nM in the test with HL-60 (FLT3 wild type); over 1000 nM in test [1]; over 1000 nM in test [2]; over 1000 nM in test [3]; 0.1 to 1 nM in test [4]. The GI50 in test [5] was over 1000 nM; in test [6], over 1000 nM; in test [7] it was 0.1 to 1 nM; in the test with U937 (FLT3 wild-type), over 1000 nM.
